From ChEMBL document CHEMBL2331077, “Sacchathridine A, a prostaglandin release inhibitor from Saccharothrix sp” (J Nat Prod, 2013) come the findings set out here.

Each structure is given as a SMILES string. Calls of active or inactive are those of the source. No cut-off for these calls is given here.

Assay [1] deals with SW982. Description: Inhibition of PGE2 release from bradykinin-stimulated human SW982 cells by fluorescence assay. In kind it is functional, cell-based.
Assay [2] concerns SW982. Description: Growth inhibition of human SW982 cells up to 30 uM after 48 hrs by cell counting. In kind it is functional, cell-based.

One may read the IC50 as the concentration at which inhibition is half-maximal. Low readings indicate greater potency in that assay, high ones weaker potency in that assay. In turn, `CS(=O)(=O)c1ccc(-n2nc(C(F)(F)F)cc2-c2ccc(F)cc2)cc1` [SC-58125] gave a half-inhibitory concentration (IC50) with SW982 [1] of 33 nM.
Regarding `COC1=C(C)C(=O)c2ccc(O[C@@H]3O[C@@H](C)[C@H](O)[C@@H](O)[C@H]3O)c(NNC(C)=O)c2C1=O` [SACCHATHRIDINE A], in the assay with SW982 [1], the IC50 turned out to be 1000 nM and the inhibition result is “Dose-dependent effect”. For the same molecule, the “growth inhibition (GI)” value in the assay with SW982 [2] was “inactive”.
